In patent publication US20240226052A1, “A SPECIFIC COMBINATION OF LIPIDS AND METHODS AND USES RELATED THERETO” (HELSINGIN YLIOPISTO, priority 2021, published 2024):

Legend:
[1] = Surface pressure and surface potential isotherms and Brewster angle microscopy at the air-buffer interface; assay type: physicochemical; settings: 35 °C; for spreading / monolayer formation on the aqueous surface: PBS
Description: (§1) The lipid species were either synthesized as described above or obtained from commercial sources (e.g. Nu-Check-Prep, Elysian, MN) and studied on their own at first. A wide range of lipid mixtures were prepared by weighing selected compounds at specific ratios and further dilution in chloroform to obtain selected concentrations. A 2 mM concentration of the corresponding mixtures was used in the surface potential and pressure measurements and a 5 mM concentration in the evaporation resistance measurements discussed herein.
The lipid mixtures dissolved in chloroform or the formulations were spread onto the air-buffer interface of either a KSV minitrough (Helsinki, Finland) or a KSV large trough which was filled with PBS buffer. Chloroform was allowed to evaporate for 3 min before starting measurements. The surface pressure was measured using a Wilhelmy plate, the surface potential was measured using a KSV surface potential sensor (Espoo, Finland) and Brewster angle microscopy images were captured using a KSV NIMA microBAM (Espoo, Finland) instrument. The films were compressed at a constant rate of 5 or 10 mm/min and the subphase temperature was kept at 35±1° C. The measurements were performed in an acrylic box under an ozone-free atmosphere to prevent undesired oxidation. An ozone-free atmosphere was generated by passing dry air through ODS-3P ozone destruct unit (Ozone solutions, Hull, Iowa) at a rate of 76 l/min within the enclosure.
The organizational behavior of FAHFA/OAHFA and wax ester mixtures were investigated by measuring surface pressure and surface potential isotherms, and, imaging the monolayer structure with a Brewster angle microscope. A phosphate buffered saline (PBS) solution was used as an in vitro model of the ocular surface and the measurements were conducted at physiological temperature (35° C.). With this model system, it is possible to accurately simulate the conditions residing on the ocular surface and the changes occurring during a blink of the eye, both in terms of surface pressure and the capabilities of the monolayer to respread over many compression-expansion cycles. Thus, the study protocol provides the essential information required for evaluating the suitability of the composition in the intended applications. More details on the study protocol can be found in the inventors' previous publications on the topic (Paananen, Ekholm et. al. in Langmuir 2019, Ocul. Surf. 2020, J. Org. Chem. 2021).

[2] = Evaporation resistance of lipid films (modified Langmuir-Schaefer desiccant cartridge method); assay type: physicochemical; settings: lipid film on PBS, 35 °C; compressed to Mma 2-40 Å^2/molecule
Description: as §1
Evaporation resistance is a property of the lipid film residing on top or above an aqueous surface, independent of the measurement method and conditions of the measurement. […] Evaporation resistance of the lipid film can be determined, for example, by measuring the evaporative flux from the aqueous surface without the lipid layer, Jw, and with a lipid film present, Jf. […] The lipid film evaporation resistance can be expressed as a function of measured quantities as rm=Δc(1/Jf−1/Jw).
In this example, the evaporation resistance was determined according to the method originally developed by Langmuir et al. (Langmuir, I. and Schaefer, V., J. 1943, J. Franklin Inst., Vol. 235, 119-162) although with certain modifications (as set out in Bland et al., Langmuir, 2019, 35, 3545-3552 (Supp. Info.). […]

| Structure (SMILES) | spreading / monolayer formation on the aqueous surface [1] | mean molecular area at surface pressure lift-off ([1]; pure lipid on PBS) | melting point | surface pressure at transition to a solid monolayer ([1]; pure lipid on PBS) | maximum evaporation resistance [2] |
| --- | --- | --- | --- | --- | --- |
| CCCCCCCC/C=C\CCCCCCCC(=O)OCCCCCCCCCCCCCCCCCCCC [AO, arachidyl oleate] | form liquid monolayers upon spreading | 70 Å^2/molecule | – | – | – |
| CCCCCCCC/C=C\CCCCCCCC(=O)OCCCCCCCCCCCCCCCCCCCCCC [BO, behenyl oleate] | did not spread on the aqueous surface but formed solid aggregates instead | – | – | – | – |
| CCCCCCCC/C=C\CCCCCCCC(=O)OCCCCCCCCCCCCCCCCCCCCCCCC(C)C [Example 5, 24-methylpentacosyl oleate] | – | – | 36 to 37.5 °C | – | – |
| CCCCCCCC/C=C\CCCCCCCC(=O)OCCCCCCCCCCCCCCCCCCCC(=O)O [Example 20-OAHFA, 20-(oleoyloxy)eicosanoic acid] | form liquid monolayers upon spreading | 140 Å^2/molecule | – | 2 mN/m | 3 to 5 s/cm |
